Laboratory results reported in patent publication US20140200135A1, “Carbamoylmethoxy- and carbamoylmethylthio- and carbamoylmethylamino benzamides for combating invertebrate pests” (BASF SE, priority 2011, published 2014).

Legend:
Format in all cases: in vivo
[1] = tested on: Southern Armyworm (Spodoptera eridiana); 2nd Instar Larvae; assay: Southern armyworm foliar spray test on lima bean, mortality; settings: for mortality at 1 ppm: Concentration 1 ppm; for mortality at 1 ppm / mortality at 10 ppm / mortality at 30 ppm: southern armyworm, Table D; for mortality at 10 ppm: Concentration 10 ppm; for mortality at 30 ppm: Concentration 30 ppm; for mortality at 500 ppm: Spodoptera, 96 h, 4 days after treatment, lima bean foliage spray, read-out: mortality in comparison with untreated controls
Experimental: (§1) The active compounds were formulated in cyclohexanone as a 10,000 ppm solution supplied in tubes. The tubes were inserted into an automated electrostatic sprayer equipped with an atomizing nozzle and they served as stock solutions for which lower dilutions were made in 50% acetone:50% water (v/v). A nonionic surfactant (Kinetic®) was included in the solution at a volume of 0.01% (v/v).
Lima bean plants (variety Sieva) were grown 2 plants to a pot and selected for treatment at the 1st true leaf stage. Test solutions were sprayed onto the foliage by an automated electrostatic plant sprayer equipped with an atomizing spray nozzle. The plants were dried in the sprayer fume hood and then removed from the sprayer. Each pot was placed into perforated plastic bags with a zip closure. About 10 to 11 armyworm larvae were placed into the bag and the bags zipped closed. Test plants were maintained in a growth room at about 25° C. and about 20-40% relative humidity for 4 days, avoiding direct exposure to fluorescent light (24 hour photoperiod) to prevent trapping of heat inside the bags. Mortality and reduced feeding were assessed 4 days after treatment, compared to untreated control plants.

[2] = tested on: Diamond Backmoth (Plutella xylostella); assay: Diamond backmoth leaf-dip test, mortality; settings: 72 hours after treatment, 3rd instar larvae on dipped cabbage leaves, read-out: mortality in comparison with untreated controls
Experimental: The active compound was dissolved at the desired concentration in a mixture of 1:1 (vol:vol) distilled water:aceteone. Surfactant (Alkamuls® EL 620) was added at a rate of 0.1% (vol/vol). The test solution was prepared at the day of use.
Leaves of cabbage were dipped in test solution and air-dried. Treated leaves were placed in petri dishes lined with moist filter paper and inoculated with ten 3rd instar larvae. Mortality was recorded 72 hours after treatment. Feeding damages were also recorded using a scale of 0-100%.

[3] = tested on: Mediterranean Fruitfly (Ceratitis capitata); assay: Mediterranean fruitfly microtiter diet test, egg and larval mortality; settings: 120 h, 5 days, insect diet, read-out: mortality in comparison with untreated controls
Experimental: For evaluating control of Mediterranean fruitfly (Ceratitis capitata) the test unit consisted of microtiter plates containing an insect diet and 50-80 C. capitata eggs.
(§2) The compounds were formulated using a solution containing 75% v/v water and 25% v/v DMSO. Different concentrations of formulated compounds were sprayed onto the insect diet at 5 μl, using a custom built micro atomizer, at two replications.
After application, microtiter plates were incubated at about 28±1° C. and about 80±5% relative humidity for 5 days. Egg and larval mortality was then visually assessed.

[4] = tested on: Green Peach Aphid (Myzus persicae); assay: Green peach aphid spray test on bell pepper plants, mortality; settings: 120 h, after 5 days, sprayed bell pepper plants, read-out: mortality in comparison with untreated controls
Description: as §1
Bell pepper plants at the first true-leaf stage were infested prior to treatment by placing heavily infested leaves from the main colony on top of the treatment plants. Aphids were allowed to transfer overnight to accomplish an infestation of 30-50 aphids per plant and the host leaves were removed. The infested plants were then sprayed by an automated electrostatic plant sprayer equipped with an atomizing spray nozzle. The plants were dried in the sprayer fume hood, removed, and then maintained in a growth room under fluorescent lighting in a 24-hr photoperiod at about 25° C. and about 20-40% relative humidity. Aphid mortality on the treated plants, relative to mortality on untreated control plants, was determined after 5 days.

[5] = tested on: Boll weevil (Anthonomus grandis); assay: Boll weevil microtiter diet test, egg and larval mortality; settings: 120 h, 5 days, insect diet, read-out: mortality in comparison with untreated controls
Experimental: For evaluating control of boll weevil (Anthonomus grandis) the test unit consisted of 24-well-microtiter plates containing an insect diet and 20-30 A. grandis eggs.
The compounds were formulated using a solution containing 75% v/v water and 25% v/v DMSO. Different concentrations of formulated compounds were sprayed onto the insect diet at 20 μl, using a custom built micro atomizer, at two replications.
After application, microtiter plates were incubated at about 23±1° C. and about 50±5% relative humidity for 5 days. Egg and larval mortality was then visually assessed.

[6] = tested on: Colorado Potato Beetle (Leptinotarsa decemlineata) (2nd instar larvae); assay: Colorado potato beetle foliar spray test on eggplant, mortality; settings: 96 h, 4 days after treatment, Table E; for mortality at 1 ppm: Concentration 1 ppm; for mortality at 10 ppm: Concentration 10 ppm; for mortality at 30 ppm: Concentration 30 ppm
Experimental: as §1
Eggplants were grown 2 plants to a pot and were selected for treatment at the 1st true leaf stage. Test solutions were sprayed onto the foliage by an automated electrostatic plant sprayer equipped with an atomizing spray nozzle. The plants were dried in the sprayer fume hood and then removed from the sprayer. The treated foliage was then cut and removed from the pot and placed in a Petri dish lined with moistened filter paper. Five beetle larvae were introduced into each Petri dish and the dish was covered by a Petri dish lid. Petri dishes were maintained in a growth room at about 25° C. and about 20-40% relative humidity for 4 days, avoiding direct exposure to fluorescent light (24 hour photoperiod) to prevent trapping of heat inside the dishes. Mortality and reduced feeding were assessed 4 days after treatment, compared to untreated control plants.

[7] = tested on: Vetch aphid (Megoura viciae); assay: Vetch aphid broad bean leaf disk test, mortality; settings: foliar, 120 h, 5 days, adult aphids on broad bean leaf disks, read-out: mortality in comparison with untreated controls
Experimental: For evaluating control of vetch aphid (Megoura viciae) through contact or systemic means the test unit consisted of 24-well-microtiter plates containing broad bean leaf disks.
The compounds were formulated using a solution containing 75% v/v water and 25% v/v DMSO. Different concentrations of formulated compounds were sprayed onto the leaf disks at 2.5 μl, using a custom built micro atomizer, at two replications.
After application, the leaf disks were air-dried and 5-8 adult aphids placed on the leaf disks inside the microtiter plate wells. The aphids were then allowed to suck on the treated leaf disks and incubated at about 23±1° C. and about 50±5% relative humidity for 5 days. Aphid mortality and fecundity was then visually assessed.

[8] = tested on: TOBACCO budworm (Heliothis virescens); assay: Tobacco budworm microtiter diet test, egg and larval mortality; settings: 120 h, 5 days, insect diet, read-out: mortality in comparison with untreated controls
Experimental: as §2, with “For evaluating control of tobacco budworm (Heliothis virescens) the test unit consisted of 96-well-microtiter plates containing an insect diet and 15-25 H. virescens eggs. The” for “The”, “at 10” for “at 5”
After application, microtiter plates were incubated at about 28±1° C./and about 80±5% relative humidity for 5 days. Egg and larval mortality was then visually assessed.

[9] = tested on: Cowpea Aphid (Aphis Craccivora); assay: Cowpea aphid spray test on potted cowpea plants, mortality; settings: after 72 hours, sprayed cowpea plants, read-out: mortality in comparison with untreated controls
Experimental: The active compound was dissolved at the desired concentration in a mixture of 1:1 (vol:vol) distilled water:acetone. Surfactant (Alkamuls® EL 620) is added at a rate of 0.1% (vol/vol). The test solution was prepared at the day of use.
Potted cowpea plants were colonized with approximately 50-100 aphids of various stages by manually transferring a leaf tissue cut from infested plant 24 hours before application. Plants were sprayed after the pest population has been recorded. Treated plants were maintained on light carts at about 28° C. Percent mortality was assessed after 72 hours.

[10] = tested on: Orchid Thrips (dichromothrips corbetti); assay: Orchid thrips floral-immersion test, mortality; settings: 72 hours after treatment, adult thrips, read-out: mortality in comparison with untreated controls
Experimental: Dichromothrips corbetti adults used for bioassay were obtained from a colony maintained continuously under laboratory conditions. For testing purposes, the test compound was diluted in a 1:1 mixture of acetone:water (vol:vol), plus 0.01% vol/vol Alkamuls® EL 620 surfactant.
Thrips potency of each compound was evaluated by using a floral-immersion technique. Plastic petri dishes were used as test arenas. All petals of individual, intact or chid flowers were dipped into treatment solution and allowed to dry. Treated flowers were placed into individual petri dishes along with about 20 adult thrips. The petri dishes were then covered with lids. All test arenas were held under continuous light and a temperature of about 28° C. for duration of the assay. After 3 days, the numbers of live thrips were counted on each flower, and along inner walls of each petri dish. The percent mortality was recorded 72 hours after treatment.

Compound | mortality at 1 ppm [1] [%] | mortality at 10 ppm [1] [%] | mortality at 30 ppm [1] [%] | mortality at 500 ppm [1] [%] | mortality at 500 ppm [2] [%] | mortality at 2500 ppm [3] [%] | mortality at 2500 ppm [4] [%] | mortality at 2500 ppm [5] [%] | mortality at 1 ppm [6] [%] | mortality at 10 ppm [6] [%] | mortality at 30 ppm [6] [%] | mortality at 2500 ppm [7] [%] | mortality at 2500 ppm [8] [%] | mortality at 500 ppm [9] [%] | mortality at 500 ppm [10] [%]
CNC(=O)CONC(=O)c1cc(Cl)cc(C)c1NC(=O)c1cc(Br)nn1-c1ncccc1Cl [Compound 1-3, 5-bromo-2-(3-chloro-pyridin-2-yl)-2H-pyrazole-3-carboxylic acid (4-chloro-2-methyl-6-methylcarbamoylmethoxycarbamoyl-phenyl)-amide] | 100 | 100 | 100 | 100 | 100 | > 75 | > 75 | > 75 | 100 | 100 | 100 | > 75 | > 75 |  | 
Cc1cc(Cl)cc(C(=O)NNCC(=O)NCc2ccccc2)c1NC(=O)c1cc(Br)nn1-c1ncccc1Cl [Compound 1-11, 5-bromo-2-(3-chloro-pyridin-2-yl)-2H-pyrazole-3-carboxylic acid {2-[N′-(benzylcarbamoyl-methyl)-hydrazinocarbonyl]-4-chloro-6-methyl-phenyl}-amide] |  |  |  | 100 | 100 | > 75 | > 75 | > 75 |  |  |  | > 75 | > 75 |  | 
CNC(=O)CONC(=O)c1cc(Br)cc(Br)c1NC(=O)c1cc(Br)nn1-c1ncccc1Cl [Compound 1-10, 5-bromo-2-(3-chloro-pyridin-2-yl)-2H-pyrazole-3-carboxylic acid (2,4-dibromo-6-methylcarbamoylmethoxycarbamoyl-phenyl)-amide] |  |  |  | 100 | 100 | > 75 | > 75 | > 75 |  |  |  | > 75 | > 75 | > 75 | > 75
CONC(=O)c1cc(Cl)cc(C)c1NC(=O)c1cc(Br)nn1-c1ncccc1Cl [Compound X-1, 5-bromo-2-(3-chloro-pyridin-2-yl)-2H-pyrazole 3-carboxylic acid (4-chloro-2-methoxycarbamoyl-6-methyl-phenyl)amide, reference compound] | 0 | 100 | 100 |  |  |  |  |  | 0 | 100 | 100 |  |  |  | 
